Series [1] deals with Acinetobacter baumannii, clinical isolate from SGUL. The series is classed as cell-based. The method, then:
(§1) The following strains were used in this study: Escherichia coli, ATCC 25922, Staphylococcus aureus, epidemic methicillin-resistant EMRSA-15, Klebsiella pneumoniae, clinical isolate from St George’s, University of London (SGUL, London, UK), Acinetobacter baumannii, clinical isolate from SGUL, Pseudomonas aeruginosa, PA01 wildtype strain, and Enterococcus faecalis, vancomycin-resistant ATCC 51299.
(§2) The minimal inhibitory concentration (MIC) was determined in a microdilution assay using Mueller–Hinton (MH) or Brain Heart Infusion Broth (BHI) broth following a previously published protocol. Briefly, a twofold serial dilution of the antibiotics and peptides were prepared and added to a bacteria solution, resulting in 2–5 10^5 CFU/mL. The microtiter plates (polypropylene, Corning, Corning, NY, USA) were incubated for 18 h at 37 °C and MICs were taken visually. Based on our experience with proline rich peptides, their low activity in Mueller–Hinton broth, and their strong activity in diluted broth, we decided to also measure the activity of the peptide set in a 1/5 dilution of the broth. MICs in the presence of serum were established using human serum (Zen-Bio, Durham, NC, USA) and heat-inactivated serum (Sigma-Aldrich, St. Louis, MO, USA). A total of 20% (v/v) of each human serum was mixed with bacterial solution and added to predetermined concentrations of antibiotics and peptides, resulting in a final 10% (v/v) concentration of serum and 2–5 × 10^5 bacteria.

Series [2] concerns Enterococcus faecalis, vancomycin-resistant ATCC 51299. The series is classed as cell-based. The protocol:
as §1, §2

In series [3] the test system is Escherichia coli, ATCC 25922. The series is classed as cell-based. The protocol: as §1, §2
For series [4], the system named is Klebsiella pneumoniae, clinical isolate from St George's, University of London. The series is classed as cell-based. The method, then: as §1, §2
In series [5] the test system is Pseudomonas aeruginosa, PA01 wildtype strain. The series is classed as cell-based. The protocol:
as §1, §2

Series [6] concerns Staphylococcus aureus, epidemic methicillin-resistant EMRSA-15. The series is classed as cell-based. The conditions noted are these: ratio of MICs. The protocol: as §1, §2
Series [7] relates to ESKAPE pathogens (E. faecalis, S. aureus, K. pneumoniae, A. baumannii, P. aeruginosa, E. coli). Briefly: MIC summary over the ESKAPE panel. The series is classed as cell-based. The protocol: as §1, §2
The next series is described as follows: Serum stability assay. The series is classed as in vitro ADME, human. To be noted: 100% human serum. The protocol: (§3) Serum stability assays were performed in 100% human serum (Sigma-Aldrich, St. Louis MO, USA, human male AB plasma). Serum was centrifuged to remove lipids and incubated with the peptides at 100 μM for 0, 0.5, 1, 3, 6, and 24 h at 37 °C. Serum proteins were precipitated by adding 3 μL of TFA to 40 μL of peptide – serum sample (final TFA 7%). The remaining supernatant was diluted with 50:50 solvent A/B. The amount of peptide remaining (%) was quantified by UPLC-MS analysis. For pH stability experiments, peptides were incubated at a concentration of 20 μM at pH 1.2 and 7.5 for 24 h, and stability was monitored by UPLC analysis.

The next series can be described thus: pH stability. The series is classed as physicochemical. The conditions noted are these: 20 μM, pH 1.2 and 7.5, 24 h, UPLC. The protocol:
as §3

In a further series the test system is E. coli (ATCC 25922). Briefly: Time kill assay. The series is classed as cell-based, Escherichia coli. The conditions noted are these: 1/5 (20%) MH broth, 3 times the MIC, 1 × 10^6 CFU/mL, 37 °C, 10-1440 min, three experiments. The method, then:
Overnight culture of E. coli (ATCC 25922) was diluted for approximately two hours to achieve logarithmic phase. The logarithmic phase inoculum was then adjusted to 1 × 10^6 CFU/mL in 20% MH broth. Within a 1.5 mL microfuge tube (STARLAB (UK) Limited, Milton Keynes, UK), the peptides were added to the inoculum at a concentration that was threefold the MIC against E coli. The tubes were placed in a shaking incubator (225 rpm) at 37 °C. At predetermined time points between 0 and 24 h: 10, 20, 40, 60, 120, 240, and 1440 min for the peptides, and for the untreated control: 0, 60, 120, 240, and 1080 min, 100 µl samples were taken out. Furthermore, a 1 in 10 dilution series using sterile 10 mM Tris buffer (pH 7.5) was performed using the removed sample, then 5 × 5 µL were spotted for each dilution onto MH agar plates and incubated at 37 °C. The next day, the colonies were counted and the colony forming units, CFU/mL for each time point, were determined.

The conditions of series [8]: cited from earlier work. An excerpt: These loops were previously found to be abl ... || Fractions f4 to f6 of [L6-optP7]Mco were initially tested against P. aeruginosa, E. coli, and MRSA (Table 1) using a rich media, Mueller–Hinton broth (MH), with all fractions displaying about the same moderate activity (within errors of the method). […] Calcium (Ca^2+) and magnesium (Mg^2+) often have the strongest effect on the antimicrobial activity of AMPs; their theoretical concentration in MH brot ...

A further series concerns red blood cells. The conditions noted are these: cited from earlier work. An excerpt:
The 9mer AMP was grafted into loops 5 and 6 of MCoTI-II. These loops were previously found to be abl ...

For series [9] the following is noted: cited from earlier work. An excerpt:
We therefore followed two cyclization strategies: (i) a simple disulfide-cyclization by introduction of N- and C-terminal cysteines, and (ii) grafting onto an extremely stable scaffold with three disulfide bridges and backbone cyclization. The MCoTI-II cyclotide scaffold was used because of its inherent non-cytotoxic nature. […] The linear peptide was ...
The source holds these as a separate data set.

[10] abbreviates: ratio of MICs (fold loss of activity in serum).

“Also recorded” adds a separate entry of the source. Where two headings read alike, the source gives them in different places. Bridge positions count the residues as written; N and C are the ends. Peptide text beside a SMILES is read from it. Some results are limits rather than exact numbers.

Take `CC[C@H](C)[C@@H]1NC(=O)[C@@H]2CSSC[C@@H]3NC(=O)[C@H](Cc4c[nH]c5ccccc45)NC(=O)[C@H]([C@@H](C)CC)NC(=O)[C@H]([C@@H](C)CC)NC(=O)[C@H](Cc4c[nH]c5ccccc45)NC(=O)[C@H](CCCNC(=N)N)NC(=O)[C@H](C(C)C)NC(=O)[C@H](CCCNC(=N)N)NC(=O)[C@H](CCCNC(=N)N)NC(=O)[C@H](CCCCN)NC(=O)[C@@H]4CSSC[C@H](NC(=O)[C@H](CC(=O)O)NC(=O)[C@H](CO)NC(=O)[C@H](CC(=O)O)NC(=O)[C@H](CCCNC(=N)N)NC(=O)[C@H](CCCNC(=N)N)NC(=O)[C@H](CSSC[C@H](NC1=O)C(=O)N[C@@H](CCCNC(=N)N)C(=O)NCC(=O)N[C@@H](CC(N)=O)C(=O)NCC(=O)N[C@@H](Cc1ccc(O)cc1)C(=O)N4)NC(=O)[C@H](CCCCN)NC(=O)[C@H](CCCCN)NC(=O)[C@H](CC(C)C)NC(=O)[C@H]([C@@H](C)CC)NC(=O)[C@H](CCCCN)NC(=O)[C@@H]1CCCN1C3=O)C(=O)N1CCC[C@H]1C(=O)NCC(=O)N[C@@H](C)C(=O)N2` [[L6-optP7]Mco] (cyclo(ACICRGNGYCKRRVRWIIWCPKILKKCRRDSDCPG); disulfide 2-20, 4-27, 10-33): the “Ratio of MIC of cyclized peptide version over MIC of the linear peptide optP7” value (from here on “Ratio of MIC of cyclized peptide version”) in series [1] (1/5 MH) is 5; in series [1] (1/5 MH + 10% human serum), 10.3; in [1] (MH), 41.3; in series [2] (1/5 BHI), 18.8; in series [2] (1/5 BHI + 10% human serum), 2.6; in series [3] (1/5 MH + 10% human serum), 18.8. Moreover, the “Ratio of MIC of cyclized peptide version” value was 3.3 in [3] (1/5 MH, average used for an MIC range); 77.5 in series [3] (MH); 20.7 in series [4] (1/5 MH); 41.3 in [4] (MH); 10.0 in series [5] (1/5 MH); 1.3 in series [5] (1/5 MH + 10% human serum). For the same compound, the “Ratio of MIC of cyclized peptide version” value in series [5] (MH) stood at 20.6. Further, the “Improvement of activity when diluting the broth” value in series [1] (1/5 MH versus MH) worked out at 15.5 fold; in series [3] (1/5 MH versus MH) it was 31 fold; in series [4] (1/5 MH versus MH), 2 fold; in [5] (1/5 MH versus MH, Table 2 data), 7.8 fold. The “Ratio 1/5 MH + 10% serum/ 1/5MH” value in [1] (ratio of MICs) is 7.75; in series [3] (setting [10]), 7.5; in series [5] (setting [10]), 1; in [6] it was more than 7.8. Also, in [2] (ratio of MICs), the “Ratio 1/5 BHI + 10% serum/ 1/5BHI” value is listed as 4.1. Moreover, in series [5] (1/5 MH versus MH, fractions of Table 1), the “Improvement of activity in diluted media” value stood at 7.8 fold. The “Average activity decrease, lower than for c-opt7” value in series [7] is given as 1.6 fold. For the same compound, the “Average activity decrease factor compared to linear optP7” value in [7] (all conditions of Table 3) amounted to 15.5 fold. For the same compound, the “Antimicrobial activity in broth (in words)” value in series [7] (undiluted broth) is recorded as “medium to weak”. For the same compound, the “Increase in stability against degradation in 100% human serum compared to the linear variant” value in the series “Serum stability assay” stood at 33 fold. The remaining at 24 h, 100 μM in “Serum stability assay” (male, 100% human serum (human male AB plasma), 100 μM, 37 °C, 24 h, UPLC-MS, read-out: Peptide still present after 24 h in human serum) was approximately 30%. The pH stability result in the series “pH stability” was “minor signs of degradation after 24 h at low pH”. For the same compound, the Kinetics of killing entry with E. coli (ATCC 25922) is reported as “drastically slower acting”.

For “Momordica trypsin inhibitor II (cyclo(SGSDGGVCPKILKKCRRDSDCPGACICRGNGYCG); also: three cystine-knot disulfides, pairing not given here; UniProt P82409 1-34, looked up) [MCoTI-II]”, the Antimicrobial activity result in series [8] is “does not exhibit any antimicrobial activity; also recorded: does not exhibit any antimicrobial effects”. For the same compound, in the series with red blood cells, the “Hemolytic activity towards red blood cells” value was “does not show hemolytic activity”. Also, in [9], the “Stability in human serum” value is listed as “high stability”.

Source of the values: PMC8228819, “Comparison of a Short Linear Antimicrobial Peptide with Its Disulfide-Cyclized and Cyclotide-Grafted Variants against Clinically Relevant Pathogens” (Microorganisms, 2021).
